Laboratory results taken from patent US20160177395A1, “BIOMARKERS FOR THE PREDICTION OF RENAL INJURY” (priority 2007, published 2016).
Values joined by “and” are separate entries in the source; they are usually repeats but may differ in a detail not shown here. Equal entries are not always repeated.

System: kidney tissues of treated or untreated rats
Assay: Real-time qRT-PCR of marker transcripts in kidney tissue panel, discovery stage (Table 22)
Type: in vivo, rat
Design: AI502869_DB71_seg0 normalized Real Time PCR expression: unit not given beside the values
Conditions: listed as Cis; for H33998_DB71_seg19 normalized Real Time PCR / MUSCYCG1R_DB81_seg15-17 normalized Real Time PCR / RATLRFI_DB71_seg9 normalized Real Time PCR / RATRAB13X_DB71_seg11-13 normalized Real Time PCR / RNU24174_DB71_seg8 normalized Real Time PCR / W41270_DB81_seg11 normalized Real Time PCR / W64472_DB81_seg2 normalized Real Time PCR / W83813_DB81_seg27 normalized Real Time PCR / AA686189_DB71_seg6 normalized Real Time PCR expression / AA799594_DB71_seg0 normalized Real Time PCR expression / AA964541_DB71_seg0 normalized Real Time PCR expression / AI045075_DB71_seg6 normalized Real Time PCR expression / AI454051_DB71_seg0 normalized Real Time PCR expression / AI502869_DB71_seg0 normalized Real Time PCR expression / AW919147_DB71_seg0 normalized Real Time PCR expression / BI293562_DB71_seg2 normalized Real Time PCR expression / H31045_DB71_seg5 normalized Real Time PCR expression / H31799_DB71_seg23 normalized Real Time PCR expression / H31883_DB71_seg13 normalized Real Time PCR expression: rat kidney
Protocol: Before RT preparation the RNA was treated with DNA-free (Ambion, cat. No. AM1906) DNase treatment and removal—according to manufacturer protocol. DNase procedure was repeated until no DNA is detected in a PCR reaction using the RNA samples.
The mixture is then incubated for 5 min at 65° C. and then quickly chilled on ice. Thereafter, 20 μl of 5× SuperscriptII first strand buffer (Invitrogen, Cat. No. Y00146), 9.6 μl 0.1M DTT (Invitrogen, Cat. No. Y00147) and 160 units RNasin (Promega, Cat. No. N251A) are added, and the mixture is incubated for 10 min at 25° C., followed by further incubation at 42° C. for 2 min. […] The resulting cDNA is diluted 1:20 in TE buffer (10 mM Tris pH=8, 1 mM EDTA pH=8).
cDNA (5 μl), prepared as described above, is used as a template in Real-Time PCR reactions using the SYBR Green I assay (PE Applied Biosystem) with specific primers in 100 nM concentration if not indicated otherwise and UNG Enzyme (Eurogentech or equal) Amplification is effected as follows: 50° C. for 2 min, 95° C. for 10 min, and then 40 cycles of 95° C. for 15 sec, followed by 60° C. for 1 min (if not indicated otherwise). Amplification step is followed by dissociation step. Detection is performed by using the PE Applied Biosystem SDS 7000. The cycle in which the reactions achieved a threshold level (Ct) of fluorescence is registered and is used to calculate the relative transcript quantity in the RT reactions. Non-detected samples are assigned Ct value of 41 and are calculated accordingly. The relative quantity is calculated using the equation Q=efficiencŷ-Ct. The efficiency of the PCR reaction is calculated from a standard curve, created by using serial dilutions of several reverse transcription (RT) reactions. To minimize inherent differences in the RT reaction, the resulting relative quantities are normalized to normalization factor calculated as follows: […]
The relative quantity (Q) of each housekeeping gene in each sample is calculated as described above. In order to calculate the “relative Q relative to MED” each Q for each HSKP gene is divided by the median quantity of this gene in all panel samples. To finally achieve the normalization factor of each sample the geometric mean of all four “relative Q relative to MED” was calculated. The normalization factor was then used for further calculations.
The markers of the present invention were tested with regard to their expression in a panel of kidney tissues samples from treated and control rats. Unless otherwise noted, all experimental data relates to the novel polynucleotides and proteins of the present invention, named according to the segment being tested (as expression was tested through RT-PCR as described). Tests were then performed as described in the “Materials and Experimental Procedures” section above.
The qRT-PCR measurements were normalized according to each samples normalization factor as described in “RT Preparation and Real-Time qRT-PCR Analysis” and further multiplied by a constant factor for ease of viewing.

[1] = day1, individual animals (F and M)
[2] = day5, individual animals (F and M)
[3] = day28, individual animals (F and M)

## N.N.[Cl][Pt][Cl] [Cisplatin]
kidney, female rats, day1
  normalized Real Time PCR MUSCYCG1R_DB81_seg19-20: 0.86 and 0.81
  normalized Real Time PCR RATRAB13X_DB81_seg15-17: 0.82 and 1.11 and 1.1
  normalized Real Time PCR RATRAB13X_DB81_seg22: 0.88 and 0.87 and 1.02
  normalized Real Time PCR W33294_DB81_seg44: 1 and 0.95
kidney, female rats, day5
  normalized Real Time PCR MUSCYCG1R_DB81_seg19-20: 2.77 and 3.44 and 2.45
  normalized Real Time PCR RATRAB13X_DB81_seg15-17: 1.37 and 1.53
  normalized Real Time PCR RATRAB13X_DB81_seg22: 1.71 and 1.92 and 1.99
  normalized Real Time PCR W33294_DB81_seg23: 2.03 and 1.99 and 1.58
  normalized Real Time PCR W33294_DB81_seg44: 2.31 and 2.19 and 2.15
kidney, female rats, day28
  normalized Real Time PCR MMU09507_DB81_seg15: 8.1 and 6.58 and 5.53
  normalized Real Time PCR MUSCYCG1R_DB81_seg19-20: 1.64 and 2.47 and 1.67
  normalized Real Time PCR RATRAB13X_DB81_seg15-17: 1.33
  normalized Real Time PCR RATRAB13X_DB81_seg22: 0.61 and 0.65 and 0.89
  normalized Real Time PCR W33294_DB81_seg23: 0.95 and 0.97 and 0.82
kidney, male rats, day1
  normalized Real Time PCR MUSCYCG1R_DB81_seg19-20: 0.85 and 0.71 and 1.18
  normalized Real Time PCR RATRAB13X_DB81_seg15-17: 0.73 and 0.84 and 0.98
  normalized Real Time PCR RATRAB13X_DB81_seg22: 0.65 and 0.66 and 1.11
  normalized Real Time PCR W33294_DB81_seg23: 0.59 and 0.49 and 0.64
  normalized Real Time PCR W33294_DB81_seg44: 0.6 and 0.84 and 0.96
kidney, male rats, day5
  normalized Real Time PCR MUSCYCG1R_DB81_seg19-20: 1.83 and 1.47 and 2.33
  normalized Real Time PCR RATRAB13X_DB81_seg15-17: 1.8 and 1.03 and 1.77
  normalized Real Time PCR RATRAB13X_DB81_seg22: 1.53 and 1.2
  normalized Real Time PCR W33294_DB81_seg44: 1.47 and 1.51
kidney, male rats, day28
  normalized Real Time PCR MUSCYCG1R_DB81_seg19-20: 2.13 and 1.97 and 2.21
  normalized Real Time PCR RATRAB13X_DB81_seg15-17: 0.95
  normalized Real Time PCR RATRAB13X_DB81_seg22: 0.66 and 0.76 and 0.65
  normalized Real Time PCR W33294_DB81_seg23: 0.95 and 0.82 and 0.88
  normalized Real Time PCR W33294_DB81_seg44: 0.83 and 0.89
[1]
  H33998_DB71_seg19 normalized Real Time PCR: 0.85 and 1 and 0.87 and 0.65 and 0.75 and 1.14
  MUSCYCG1R_DB81_seg15-17 normalized Real Time PCR: 0.77 and 0.85 and 0.72 and 0.54 and 0.35 and 0.67
  RATLRFI_DB71_seg9 normalized Real Time PCR: 1.49 and 0.3 and 0.57 and 0.24 and 0.2 and 0.37
  RATRAB13X_DB71_seg11-13 normalized Real Time PCR: 0.91 and 1.09 and 0.87 and 1.15
  RNU24174_DB71_seg8 normalized Real Time PCR: 0.57 and 0.32 and 0.36 and 0.2 and 0.27 and 0.69
  W41270_DB81_seg11 normalized Real Time PCR: 1.11 and 0.86 and 0.76 and 0.33 and 0.63 and 0.71
  W64472_DB81_seg2 normalized Real Time PCR: 0.8 and 0.54 and 0.55 and 0.3 and 0.51 and 0.92
  W83813_DB81_seg27 normalized Real Time PCR: 1.1 and 0.97 and 0.99 and 0.5 and 0.66 and 0.94
day1, individual animals
  AA686189_DB71_seg6 normalized Real Time PCR expression: 0.7 and 0.44 and 0.66 and 0.48 and 0.42 and 0.68
  AA799594_DB71_seg0 normalized Real Time PCR expression: 0.39 and 0.98 and 0.59 and 0.99 and 0.87
  AA964541_DB71_seg0 normalized Real Time PCR expression: 0.88 and 0.58 and 0.41 and 0.4 and 0.29 and 0.56
  AI045075_DB71_seg6 normalized Real Time PCR expression: 1.01 and 0.68 and 0.79 and 0.64 and 0.62 and 1.09
  AI454051_DB71_seg0 normalized Real Time PCR expression: 0.94 and 1.22 and 1 and 0.65 and 0.96 and 1.45
  AI502869_DB71_seg0 normalized Real Time PCR expression: 0.67 and 0.78 and 0.74 and 0.87 (2×) and 0.84
  AW919147_DB71_seg0 normalized Real Time PCR expression: 0.8 and 1.09 and 0.87 (2×) and 0.88
  BI293562_DB71_seg2 normalized Real Time PCR expression: 0.74 and 0.5 and 0.38 and 0.7 and 0.39 and 0.71
  H31045_DB71_seg5 normalized Real Time PCR expression: 0.24 and 0.28 and 0.22 and 0.82 and 0.21 and 1.22
  H31799_DB71_seg23 normalized Real Time PCR expression: 1.03 and 1.09 and 1.22
  H31883_DB71_seg13 normalized Real Time PCR expression: 2.03 and 0.74 and 0.71 and 1.52
[2]
  H33998_DB71_seg19 normalized Real Time PCR: 1.79 and 1.84 and 1.95 and 1.49 and 0.46 and 2.14
  MUSCYCG1R_DB81_seg15-17 normalized Real Time PCR: 3.12 and 3.59 and 2.07 and 2.31 and 0.92 and 2.34
  RATLRFI_DB71_seg9 normalized Real Time PCR: 0.79 and 0.44 and 0.32 and 0.65 and 0.34 and 1.97
  RATRAB13X_DB71_seg11-13 normalized Real Time PCR: 1.01 and 1.02 and 0.74
  RNU24174_DB71_seg8 normalized Real Time PCR: 0.97 and 0.7 and 0.6 and 1.3 and 0.31 and 3.6
  W41270_DB81_seg11 normalized Real Time PCR: 1.97 and 1.9 and 1.79 and 1.51 and 3.12
  W64472_DB81_seg2 normalized Real Time PCR: 2.23 and 2.1 and 1.99 and 2.64 and 0.95 and 4.55
  W83813_DB81_seg27 normalized Real Time PCR: 2.12 (2×) and 2.25 and 1.39 and 0.94 and 1.41
day5, individual animals
  AA686189_DB71_seg6 normalized Real Time PCR expression: 0.93 and 0.76 and 1.5 and 0.69 and 4.48
  AA799594_DB71_seg0 normalized Real Time PCR expression: 1.34 and 1.11 and 0.93 and 0.71 and 0.75
  AA964541_DB71_seg0 normalized Real Time PCR expression: 0.99 and 0.74 and 0.76 and 1.94 and 0.67 and 4.8
  AI045075_DB71_seg6 normalized Real Time PCR expression: 0.86 and 0.53 and 0.76 and 1.93 and 0.81 and 1.33
  AI454051_DB71_seg0 normalized Real Time PCR expression: 1.43 and 1.39 and 0.92 and 0.86
  AI502869_DB71_seg0 normalized Real Time PCR expression: 0.8 and 0.93 and 0.74 and 0.52 and 0.61
  AW919147_DB71_seg0 normalized Real Time PCR expression: 1.39 and 0.83 and 0.8 and 0.88
  BI293562_DB71_seg2 normalized Real Time PCR expression: 0.74 and 0.67 and 0.7 and 3.45 and 0.81 and 1.76
  H31045_DB71_seg5 normalized Real Time PCR expression: 1.8 and 0.34 and 0.51 and 3.25 and 0.23 and 1.66
  H31799_DB71_seg23 normalized Real Time PCR expression: 1.1 and 0.74 and 1.23 and 0.92
  H31883_DB71_seg13 normalized Real Time PCR expression: 1.44 and 1.2 and 1.73 and 1.3 and 2.43
[3]
  H33998_DB71_seg19 normalized Real Time PCR: 0.55 and 0.69 and 0.85 and 0.61 and 0.62 and 0.41
  MUSCYCG1R_DB81_seg15-17 normalized Real Time PCR: 1.96 and 2.57 and 2.7 and 2.09 and 2.31 and 1.93
  RATLRFI_DB71_seg9 normalized Real Time PCR: 2.33 and 3.05 and 3.8 and 3.03 and 2.4 and 2.26
  RATRAB13X_DB71_seg11-13 normalized Real Time PCR: 1.62 and 1.78 and 1.57 and 1.24 and 1.31
  RNU24174_DB71_seg8 normalized Real Time PCR: 8.38 and 12.63 and 12.14 and 10.21 and 7.3 and 8.08
  W41270_DB81_seg11 normalized Real Time PCR: 1.45 (2×) and 1.8 and 1.48 and 1.94 and 1.11
  W64472_DB81_seg2 normalized Real Time PCR: 1.81 and 3.16 and 2.87 and 2.8 and 3.04 and 1.65
  W83813_DB81_seg27 normalized Real Time PCR: 0.71 and 0.7 and 0.78 and 0.51 (2×) and 0.57
day28, individual animals
  AA686189_DB71_seg6 normalized Real Time PCR expression: 0 and 3.57 and 6.06 and 3.15 and 4.29 and 3.86
  AA799594_DB71_seg0 normalized Real Time PCR expression: 0.74 and 0.64 and 0.52 and 0.36 and 0.97 and 0.62
  AA964541_DB71_seg0 normalized Real Time PCR expression: 2.63 and 5.28 and 6.85 and 3.72 and 4.71 and 3.97
  AI045075_DB71_seg6 normalized Real Time PCR expression: 2.17 and 3.09 and 3.37 and 3.18 and 2.72 and 1.57
  AI454051_DB71_seg0 normalized Real Time PCR expression: 0.68 and 0.8 and 0.87 and 0.73 and 0.82 and 0.78
  AI502869_DB71_seg0 normalized Real Time PCR expression: 1.03 (2×) and 0.74 and 1.35 and 0.95
  AW919147_DB71_seg0 normalized Real Time PCR expression: 0.54 (2×) and 0.72 and 0.66 and 0.84
  BI293562_DB71_seg2 normalized Real Time PCR expression: 5.98 and 12.27 and 8.01 and 6.24 and 2.93 and 3.33
  H31045_DB71_seg5 normalized Real Time PCR expression: 0.73 (2×) and 0.81 and 0.88 and 2.92 and 2.96
  H31799_DB71_seg23 normalized Real Time PCR expression: 1.15 and 0.98 and 0.88 and 0.9
  H31883_DB71_seg13 normalized Real Time PCR expression: 2.72 and 4.07 and 3.83 and 2.41 and 3.37 and 2.23
